The values below come from ChEMBL document CHEMBL1131894, “N-phenylalkyl-substituted tropane analogs of boat conformation with high selectivity for the dopamine versus serotonin transporter” (Bioorg Med Chem Lett, 1999).

The target of assay [1] is T1, Sodium-dependent dopamine transporter (Rattus norvegicus, UniProt P23977). In words: Inhibition of [3H]dopamine uptake at striatal nerve endings by dopamine transporter.
Assay [2] in a line: Selectivity of uptake of 5-HT to DA. In kind it is functional.
In assay [3] the target is T1, Sodium-dependent dopamine transporter. The assay can be described thus: Displacement of [3H]mazindol from cocaine binding site on Dopamine transporter (DAT).
The target of assay [4] is Sodium-dependent serotonin transporter (Rattus norvegicus, UniProt P31652). The assay can be described thus: Inhibition of [3H]5-HT uptake at striatal nerve endings by serotonin transporter.

What is called Ki is a dissociation constant, usually derived from enzyme kinetics or from competition with a known ligand. High values mean weaker binding, low ones tighter binding.

T1 sequence (P23977 whole entry): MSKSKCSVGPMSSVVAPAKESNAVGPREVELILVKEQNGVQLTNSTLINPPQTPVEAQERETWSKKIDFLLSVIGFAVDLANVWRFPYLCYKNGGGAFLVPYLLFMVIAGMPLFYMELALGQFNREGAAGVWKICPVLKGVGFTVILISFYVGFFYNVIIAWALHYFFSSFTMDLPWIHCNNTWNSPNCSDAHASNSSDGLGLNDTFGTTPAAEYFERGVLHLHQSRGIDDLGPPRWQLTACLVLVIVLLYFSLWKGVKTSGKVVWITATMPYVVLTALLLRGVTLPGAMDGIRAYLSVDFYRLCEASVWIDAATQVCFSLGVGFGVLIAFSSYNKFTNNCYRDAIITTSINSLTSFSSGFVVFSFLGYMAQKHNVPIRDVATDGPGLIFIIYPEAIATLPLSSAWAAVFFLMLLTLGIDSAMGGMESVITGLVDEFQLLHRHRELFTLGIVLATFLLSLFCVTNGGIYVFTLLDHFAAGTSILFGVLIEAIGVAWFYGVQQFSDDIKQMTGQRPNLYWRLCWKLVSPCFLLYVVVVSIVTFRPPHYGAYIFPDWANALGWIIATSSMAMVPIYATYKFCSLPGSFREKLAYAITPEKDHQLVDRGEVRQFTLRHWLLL
Chain of Sodium-dependent serotonin transporter (P31652 whole entry): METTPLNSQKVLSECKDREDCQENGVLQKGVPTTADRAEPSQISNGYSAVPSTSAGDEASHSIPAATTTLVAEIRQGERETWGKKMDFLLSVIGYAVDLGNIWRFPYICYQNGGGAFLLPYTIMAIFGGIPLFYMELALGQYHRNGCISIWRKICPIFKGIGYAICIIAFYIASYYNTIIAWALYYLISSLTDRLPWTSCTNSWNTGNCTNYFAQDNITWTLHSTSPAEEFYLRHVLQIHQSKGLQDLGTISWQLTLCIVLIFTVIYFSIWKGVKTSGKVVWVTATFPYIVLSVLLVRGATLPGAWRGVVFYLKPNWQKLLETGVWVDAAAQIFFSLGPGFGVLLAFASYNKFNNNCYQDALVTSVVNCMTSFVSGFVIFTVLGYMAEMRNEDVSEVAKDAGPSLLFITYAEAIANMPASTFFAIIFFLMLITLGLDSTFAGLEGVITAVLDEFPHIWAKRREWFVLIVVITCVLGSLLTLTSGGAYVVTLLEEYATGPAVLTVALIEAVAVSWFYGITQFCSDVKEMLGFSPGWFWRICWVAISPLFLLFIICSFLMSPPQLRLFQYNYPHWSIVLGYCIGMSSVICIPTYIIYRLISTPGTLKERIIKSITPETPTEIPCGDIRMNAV

For `Cc1ccc([C@@H]2C[C@H]3CCC(C2c2ccccc2)N3C)cc1` (some centres undefined), the figures for the Ki in assay [1], in assay [3] and in assay [4] were 0.0046 µM, 0.006 µM and 0.12 µM, respectively. Also, the Selectivity in assay [2] came to 26.
On the same counts, the results for `Fc1ccc(C2C3CC[C@H](C[C@H]2c2ccc(F)cc2)N3CCCCc2ccccc2)cc1` (some centres undefined) are 0.21 µM, 0.0864 µM, 0.11 µM and 0.52.
The matching figures for `Fc1ccc(C2C3CC[C@H](C[C@H]2c2ccc(F)cc2)N3CCCc2ccccc2)cc1` (some centres undefined): 0.043 µM, 0.016 µM, 0.608 µM and 14.
On the same counts, the results for `CN1C2CC[C@@H]1C[C@@H](c1ccc(F)cc1)C2c1ccc(F)cc1` (some centres undefined) are 0.014 µM, 0.031 µM, 0.46 µM and 33.
In the case of `Fc1ccc(C2C3CC[C@H](C[C@H]2c2ccc(F)cc2)N3CCC(c2ccccc2)c2ccccc2)cc1` (some centres undefined), the Ki in assay [1] was above 10 µM; in assay [3], above 7 µM; in assay [4], above 20 µM.
Take `Fc1ccc(C2C3CC[C@H](C[C@H]2c2ccc(F)cc2)N3CCc2ccccc2)cc1` (some centres undefined): the values for the Ki in assay [1], in assay [3] and in assay [4] were 0.026 µM, 0.01 µM and above 0.0013 µM, respectively. The same compound displayed a Selectivity in assay [2] above 50.
As to `Fc1ccc(C2C3CCC(C[C@H]2c2ccc(F)cc2)N3)cc1` (some centres undefined), the Ki turned out to be 0.017 µM in assay [1], 0.049 µM in assay [3] and 0.041 µM in assay [4]. In assay [2], this compound came in with a Selectivity of 2.4.
On the same counts, the results for `Fc1ccc(C2C3CC[C@H](C[C@H]2c2ccc(F)cc2)N3Cc2ccccc2)cc1` (some centres undefined) are 0.17 µM, 0.26 µM, 0.49 µM and 2.9.
On the same counts, the results for `Cc1ccc([C@@H]2C[C@H]3CCC(C2c2ccccc2)N3CCc2ccccc2)cc1` (some centres undefined) are 0.0016 µM, 0.00095 µM, 0.18 µM and 113.
The matching figures for `Fc1ccc(OCCN2C3CC[C@@H]2C[C@@H](c2ccc(F)cc2)C3c2ccc(F)cc2)cc1` (some centres undefined): 0.027 µM, 0.022 µM, 0.928 µM and 34.
